Patent US4269831A, “Topical dermatological method of use of an androstenopyrazole” (priority 1979, dated 1981)

Assays:
[1] = system: flank organ of mature male Syrian golden hamsters; test: Topical comparison in mature male hamsters, right flank organ treated, left flank organ vehicle (Tables II, III); type: in vivo; conditions: n=7; for Flank organ Diameter, RFO / Flank organ Weight, RFO / Flank organ Development, RFO (median score): treated right flank organ; for Flank organ Diameter, RFO / Flank organ Weight, RFO: mean; for Flank organ Development, RFO (median score): scale 0 to 4 (0 barely visible, 4 as in mature male); for Flank Organ (Mean Score) Area / Flank Organ (Mean Score) Elevation / Flank Organ (Mean Score) Hair Growth / Flank Organ (Mean Score) Hair Pigmentation / Flank Organ (Mean Score) Skin Pigmentation: RFO, scale 0 to 4
Text: Each flank organ of mature male Syrian golden hamsters having a mean initial body weight of 105 g. was medicated topically with the compound of Formula I dissolved in ethanol (5 microliters) for twenty-one days. Flank organ hair was clipped three times per week to facilitate application. On the day following the last medication the hamsters were killed with an overdose of sodium pentobarbital. The flank organ parameters and the weights of seminal vesicles, adrenals and thymus glands were determined. Flank organ diameter was measured parallel to the breadth of the hamster with vernier calipers. Wet weights were obtained on flank organs excised around the periphery of the pigmented area. The topical activity of the compound of Formula I was also compared with that of 17β-hydroxy-17α-propylandrost-4-en-3-one, an antiandrogen, and hydrocortisone. In this experiment the right flank organ was treated with the test compound while vehicle-treated left flank organ served as control. […] In addition, the individual characteristics of the flank organ, elevation (thickness relative to adjacent skin), area, hair pigment, skin pigment and hair growth were all scored separately on a scale of 0 to 4.

[2] = target: T1, hamster flank organ cytosol receptor (Mesocricetus auratus, UniProt A0A1U7QL32); test: Binding competition with 3H-dihydrotestosterone in hamster flank organ cytosol in vitro (Table VI); design: species or system Syrian golden hamsters; conditions: 3H-DHT 2 nM, two hours, no antagonist 13.96
T1 construct: The homogenate was centrifuged (120,000×g for 45 min.) and the cytosol was frozen and stored at -70° C; from tissue; host or cells: flank organ cytosol of castrated male Syrian golden hamsters
T1 sequence (A0A1U7QL32 1-900): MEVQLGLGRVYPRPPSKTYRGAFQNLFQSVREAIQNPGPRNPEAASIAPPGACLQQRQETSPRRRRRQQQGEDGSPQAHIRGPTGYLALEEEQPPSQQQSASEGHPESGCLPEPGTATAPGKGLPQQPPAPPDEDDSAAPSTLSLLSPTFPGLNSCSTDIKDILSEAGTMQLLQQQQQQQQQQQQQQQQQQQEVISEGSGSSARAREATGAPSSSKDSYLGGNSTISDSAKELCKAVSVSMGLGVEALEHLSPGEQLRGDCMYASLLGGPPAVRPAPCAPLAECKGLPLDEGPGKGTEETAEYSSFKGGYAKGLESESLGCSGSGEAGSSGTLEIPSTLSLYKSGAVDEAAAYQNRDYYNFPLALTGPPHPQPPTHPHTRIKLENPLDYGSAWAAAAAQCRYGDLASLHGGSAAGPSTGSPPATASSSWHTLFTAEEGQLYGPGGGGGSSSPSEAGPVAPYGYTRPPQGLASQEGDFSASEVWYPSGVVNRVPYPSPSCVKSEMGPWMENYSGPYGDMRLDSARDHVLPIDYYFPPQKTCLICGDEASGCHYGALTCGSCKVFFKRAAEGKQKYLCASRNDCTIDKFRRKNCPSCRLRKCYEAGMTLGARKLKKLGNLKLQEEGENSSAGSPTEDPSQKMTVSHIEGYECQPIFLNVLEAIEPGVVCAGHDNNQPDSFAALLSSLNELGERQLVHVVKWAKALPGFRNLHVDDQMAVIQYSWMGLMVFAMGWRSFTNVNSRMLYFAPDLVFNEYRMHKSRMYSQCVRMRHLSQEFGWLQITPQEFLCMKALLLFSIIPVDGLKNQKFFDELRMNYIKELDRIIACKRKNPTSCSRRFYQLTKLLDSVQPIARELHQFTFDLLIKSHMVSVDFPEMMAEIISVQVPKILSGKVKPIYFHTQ
Protocol: The flank organs of twelve mature male Syrian golden hamsters each weighing from 120 to 140 g. and having been castrated 16-18 hours earlier were excised, dissected under the microscope to remove the dermis and the muscle layers and homogenized in buffer (1.5 volumes of 50 mM Tris, 0.5 mM mercaptoethanol and 0.1 mM ethylenediamine tetracetate, pH 7.4). The homogenate was centrifuged (120,000×g for 45 min.) and the cytosol was frozen and stored at -70° C. Six of the cytosol samples were thawed at room temperature, pooled and used for evaluation of in vitro binding.

[3] = system: hair growth on backs of male adrenalectomized Sprague-Dawley rats; test: Reduction in hair growth in male adrenalectomized rats, topical (Table VII); type: in vivo; conditions: 0.1% solution topical, n=12
Text: Hair was clipped from the backs of male Sprague-Dawley rats, having a mean body weight of 300 g., three weeks after adrenalectomy. The clipped area (4 cm.×4 cm.) was medicated with approximately 500 microliters of 0.1% solution of the compound of Formula I, or hydrocortisone or 500 microliters of ethanol alone for a two-week pretreatment period. The clipped area was then depilated and the medication with either solution or ethanol alone was continued for 4 weeks. The density of hair growth was scored visually at weekly intervals and at termination of the experiment on a scale of 0 to 4 (0, no hair growth; 4, complete hair regrowth). Skinfold thickness was also measured using a micrometer at the end of the experiment, which was conducted blind.

[4] = system: castrated immature male Syrian golden hamsters; test: Systemic antiandrogenic and glucocorticoid activity, subcutaneous, with testosterone propionate (Table IV); type: in vivo; conditions: testosterone propionate 0.4 mg/kg/day alone for 14 days (androgen-treated control); mean, n=8
Protocol: A solution of the compound of Formula I in cottonseed oil was administered subcutaneously at 1 ml./kg. to castrated immature male Syrian golden hamsters having a mean initial body weight of 79 g. for 14 consecutive days concurrently with testosterone propionate. On the day following the last medication the hamsters were killed, the flank organ parameters were determined and the weights of seminal vesicles, adrenals and thymus glands were obtained.

[5] = after depilation, median score, scale 0 to 4

SMILES	Flank organ Diameter, RFO ([1]; 5 μg/RFO for 21 days) [mm]	Flank organ Weight, RFO ([1]; 5 μg/RFO for 21 days) [mg]	Flank organ Development, RFO (median score) ([1]; 5 μg/RFO for 21 days)	Flank organ Diameter, RFO ([1]; 50 μg/RFO for 21 days) [mm]	Flank organ Weight, RFO ([1]; 50 μg/RFO for 21 days) [mg]	Flank organ Development, RFO (median score) ([1]; 50 μg/RFO for 21 days)	Flank Organ (Mean Score) Area ([1]; 5 μg/flank organ for 21 days)	Flank Organ (Mean Score) Elevation ([1]; 5 μg/flank organ for 21 days)	Flank Organ (Mean Score) Hair Growth ([1]; 5 μg/flank organ for 21 days)	Flank Organ (Mean Score) Hair Pigmentation ([1]; 5 μg/flank organ for 21 days)	Flank Organ (Mean Score) Skin Pigmentation ([1]; 5 μg/flank organ for 21 days)	Flank Organ (Mean Score) Area ([1]; 50 μg/flank organ for 21 days)	Flank Organ (Mean Score) Elevation ([1]; 50 μg/flank organ for 21 days)	Flank Organ (Mean Score) Hair Growth ([1]; 50 μg/flank organ for 21 days)	Flank Organ (Mean Score) Hair Pigmentation ([1]; 50 μg/flank organ for 21 days)	Flank Organ (Mean Score) Skin Pigmentation ([1]; 50 μg/flank organ for 21 days)	further results
CCC[C@]1(O)CC[C@H]2[C@@H]3CCC4=CC(=O)CC[C@]4(C)[C@H]3CC[C@@]21C [17β-Hydroxy-17α-propylandrost-4-en-3-one, 17β-hydroxy-17α-propylandrost-4-en-3-one]	4.9	33.8	3	3.9	21.4	2	3.1	2.6	3.1	3.3	4.0	1.6	1.4	2.3	2.6	2.7	–
C[C@]12CCC(=O)C[C@@H]1CC[C@@H]1[C@@H]2CC[C@]2(C)[C@@H](O)CC[C@@H]12 [DHT, Dihydrotestosterone, reference compound]	–	–	–	–	–	–	–	–	–	–	–	–	–	–	–	–	% Bound (Mean ± SE) of 3H-dihydrotestosterone ([2]; unlabelled antagonist 20 nM, molar ratio 10): 7.95 ± .41%; % Bound (Mean ± SE) of 3H-dihydrotestosterone ([2]; unlabelled antagonist 200 nM, molar ratio 100): 4.22 ± .001%; % Bound (Mean ± SE) of 3H-dihydrotestosterone ([2]; unlabelled antagonist 2000 nM, molar ratio 1000): 4.00 ± .22%
C[C@]12CCC(=O)C=C1CC[C@@H]1[C@@H]2[C@@H](O)C[C@@]2(C)[C@H]1CC[C@]2(O)C(=O)CO [Hydrocortisone, hydrocortisone]	5.7	38.5	4	5.7	39.1	4	3.7	3.7	1.9	3.7	3.9	4.0	3.5	1.3	3.0	3.4	Hair Growth Score, Treatment week 1 [3, 5]: 0; Hair Growth Score, Treatment week 2 [3, 5]: 0; Hair Growth Score, Treatment week 3 [3, 5]: 1; Hair Growth Score, Treatment week 4 [3, 5]: 2; Skinfold Thickness, Treatment week 4 ([3]; mean, vehicle 2.51): 2.11 mm; Hair Growth Score, Pretreatment week 1 ([3]; median score, scale 0 to 4 (0 no hair growth, 4 complete regrowth)): 2; Hair Growth Score, Pretreatment week 2 ([3]; median score, scale 0 to 4): 3
CCC(=O)O[C@H]1CC[C@H]2[C@@H]3CCC4=CC(=O)CC[C@]4(C)[C@H]3CC[C@]12C [Testosterone Propionate, testosterone propionate, reference compound]	–	–	–	–	–	–	–	–	–	–	–	–	–	–	–	–	Final Body Weight [4]: 106; Flank Organ Diameter [4]: 4.3 mm; Flank Organ Wet Weight [4]: 22.8 mg; Organ Weights: Adrenals [4]: 18.2 mg; Organ Weights: Seminal Vesicles [4]: 157 mg; Organ Weights: Thymus [4]: 58 mg
